Like-named read-outs stand apart in the source and are kept apart here.
What was measured:
Format in all cases: biochemical
METTL3/METTL14 = METTL3/METTL14 (Homo sapiens, UniProt Q86U44); assay: METTL3-14 standard enzyme assay (3H-SAM flashplate scintillation); conditions: METTL3/METTL14 2.5 nM, RNA 100 nM, 3H-SAM 100 nM, 30 min
In short: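 METTL3/METTL14 (2.5 nM final) preincubated 5 min with compound in 20 mM HEPES pH 7.5, 50 mM KCl, 250 μM MgCl2, 1 mM DTT, ambient temperature; started with 100 nM 3′-biotinylated RNA (UCUGGACUAAA) and 100 nM 3H-SAM. After 30 min, quenched with 15 μM cold SAM; methylated RNA captured on streptavidin flashplates and counted by scintillation.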

PRMT5-MEP50 = PRMT5-MEP50 (Homo sapiens, UniProt O14744); assay: PRMT5 assay (3H-SAM flashplate scintillation); conditions: PRMT5-MEP50 2.5 nM, histone H4 peptide 100 nM, 3H-SAM 250 nM, 60 min
Sequence of PRMT5-MEP50 (O14744 whole entry): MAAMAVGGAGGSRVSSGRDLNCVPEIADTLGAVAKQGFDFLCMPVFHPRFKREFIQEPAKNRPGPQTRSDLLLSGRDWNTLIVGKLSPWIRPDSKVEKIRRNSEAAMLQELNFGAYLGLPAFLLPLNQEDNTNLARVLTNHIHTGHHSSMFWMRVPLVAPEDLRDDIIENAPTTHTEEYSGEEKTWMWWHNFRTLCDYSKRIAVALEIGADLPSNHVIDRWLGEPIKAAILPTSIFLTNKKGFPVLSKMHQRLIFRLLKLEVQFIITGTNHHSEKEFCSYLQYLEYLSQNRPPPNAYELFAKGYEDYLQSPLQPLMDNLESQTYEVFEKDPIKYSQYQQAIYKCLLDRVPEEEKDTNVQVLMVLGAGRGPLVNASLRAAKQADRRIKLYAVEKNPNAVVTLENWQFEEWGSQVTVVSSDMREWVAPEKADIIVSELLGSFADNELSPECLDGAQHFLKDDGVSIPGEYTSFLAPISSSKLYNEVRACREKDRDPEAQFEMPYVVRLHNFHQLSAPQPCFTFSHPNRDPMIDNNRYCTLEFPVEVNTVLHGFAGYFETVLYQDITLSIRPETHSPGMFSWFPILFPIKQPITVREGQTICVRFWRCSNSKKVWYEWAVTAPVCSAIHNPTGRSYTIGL
Sequence of PRMT5-MEP50 (Q9BQA1 whole entry partner): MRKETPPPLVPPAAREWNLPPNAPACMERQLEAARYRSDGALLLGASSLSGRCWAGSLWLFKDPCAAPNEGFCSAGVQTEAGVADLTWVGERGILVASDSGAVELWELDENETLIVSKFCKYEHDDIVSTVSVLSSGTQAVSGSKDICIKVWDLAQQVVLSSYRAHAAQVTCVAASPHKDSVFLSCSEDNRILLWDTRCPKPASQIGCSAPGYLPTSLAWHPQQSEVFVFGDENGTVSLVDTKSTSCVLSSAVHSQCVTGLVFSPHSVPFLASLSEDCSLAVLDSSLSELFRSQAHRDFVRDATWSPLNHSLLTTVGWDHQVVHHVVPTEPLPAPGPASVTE
In short: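 PRMT5-MEP50 (2.5 nM final) preincubated 5 min with compound, then reacted 60 min at ambient temperature with 100 nM biotinylated N-acetyl histone H4 peptide and 250 nM 3H-SAM in 20 mM Tris-HCl pH 8.0, 1 mM DTT, 0.01% Tween. Quenched with 15 μM cold SAM; methylated peptide captured on streptavidin flashplates, scintillation counted.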

METTL1/WDR4 = METTL1/WDR4 (Homo sapiens, UniProt Q9UBP6); assay: METTL1 assay (3H-SAM flashplate scintillation)
Sequence of METTL1/WDR4 (Q9UBP6 whole entry, species assumed): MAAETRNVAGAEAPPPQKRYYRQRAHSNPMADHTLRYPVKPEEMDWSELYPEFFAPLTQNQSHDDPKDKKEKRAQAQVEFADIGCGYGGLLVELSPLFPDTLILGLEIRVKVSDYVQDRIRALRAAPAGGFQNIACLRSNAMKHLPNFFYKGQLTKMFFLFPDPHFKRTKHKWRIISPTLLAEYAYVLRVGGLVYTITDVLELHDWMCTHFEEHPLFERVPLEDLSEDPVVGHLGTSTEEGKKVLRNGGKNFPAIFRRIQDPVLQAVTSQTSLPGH
Sequence of METTL1/WDR4 (P57081 whole entry partner, species assumed): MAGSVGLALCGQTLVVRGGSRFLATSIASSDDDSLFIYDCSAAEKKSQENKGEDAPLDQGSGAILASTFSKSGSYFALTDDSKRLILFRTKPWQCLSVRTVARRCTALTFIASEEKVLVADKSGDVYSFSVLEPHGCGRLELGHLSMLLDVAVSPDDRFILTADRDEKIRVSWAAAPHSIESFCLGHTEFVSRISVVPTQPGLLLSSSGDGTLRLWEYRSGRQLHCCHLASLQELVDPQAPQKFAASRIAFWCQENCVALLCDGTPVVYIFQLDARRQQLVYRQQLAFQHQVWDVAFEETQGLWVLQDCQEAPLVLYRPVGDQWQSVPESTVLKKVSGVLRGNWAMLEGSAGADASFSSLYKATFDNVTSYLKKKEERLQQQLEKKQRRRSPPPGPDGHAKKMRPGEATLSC
In short: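 Radiometric methyltransfer by METTL1/WDR4 (6.25 nM f.c., 5 min preincubation) at ambient temperature in HEPES pH 7.5, KCl, MgCl2, DTT; started with 25 nM 3′-biotinylated RNA and 60 nM 3H-SAM, run 20 min, quenched with 15 μM cold SAM. Product captured on streptavidin flashplates (2 h, 25° C), counted by scintillation.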

METTL16 = target: T1, METTL16 (Homo sapiens, UniProt Q86W50); assay: METTL16 assay (3H-SAM flashplate scintillation); conditions: METTL16 100 nM, RNA 50 nM, 3H-SAM 200 nM, SAM 800 nM, 20 min
T1 sequence (Q86W50 1-562): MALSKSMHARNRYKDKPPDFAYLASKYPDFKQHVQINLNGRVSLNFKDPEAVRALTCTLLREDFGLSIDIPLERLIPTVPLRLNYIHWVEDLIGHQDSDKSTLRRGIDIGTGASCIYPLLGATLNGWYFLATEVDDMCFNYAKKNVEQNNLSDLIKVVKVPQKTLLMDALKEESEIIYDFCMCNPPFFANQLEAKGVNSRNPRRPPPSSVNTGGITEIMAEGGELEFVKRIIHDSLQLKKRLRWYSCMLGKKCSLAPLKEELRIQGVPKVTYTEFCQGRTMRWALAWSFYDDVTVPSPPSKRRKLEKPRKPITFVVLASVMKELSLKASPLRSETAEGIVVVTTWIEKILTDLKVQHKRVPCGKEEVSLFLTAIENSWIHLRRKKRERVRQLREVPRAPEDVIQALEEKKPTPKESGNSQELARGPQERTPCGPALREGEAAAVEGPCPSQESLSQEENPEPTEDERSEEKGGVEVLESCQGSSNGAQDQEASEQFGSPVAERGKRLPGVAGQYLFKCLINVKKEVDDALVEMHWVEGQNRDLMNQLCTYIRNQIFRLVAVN
In short: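 Radiometric methyltransferase reaction at ambient temperature in 20 mM HEPES pH 7.5, 50 mM KCl, 1 mM DTT, with 100 nM enzyme preincubated 5 min with compound. It was started with 50 nM 3′-biotinylated RNA, 200 nM 3H-SAM plus 800 nM cold SAM, run 20 min, then quenched with excess cold SAM. Product was captured on streptavidin flashplates and scintillation-counted.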

[1] = METTL1/WDR4 6.25 nM, RNA 25 nM, 3H-SAM 60 nM, 20 min, read-out: METTL1 IC50

Sequence of METTL3/METTL14 (Q86U44 whole entry, species assumed): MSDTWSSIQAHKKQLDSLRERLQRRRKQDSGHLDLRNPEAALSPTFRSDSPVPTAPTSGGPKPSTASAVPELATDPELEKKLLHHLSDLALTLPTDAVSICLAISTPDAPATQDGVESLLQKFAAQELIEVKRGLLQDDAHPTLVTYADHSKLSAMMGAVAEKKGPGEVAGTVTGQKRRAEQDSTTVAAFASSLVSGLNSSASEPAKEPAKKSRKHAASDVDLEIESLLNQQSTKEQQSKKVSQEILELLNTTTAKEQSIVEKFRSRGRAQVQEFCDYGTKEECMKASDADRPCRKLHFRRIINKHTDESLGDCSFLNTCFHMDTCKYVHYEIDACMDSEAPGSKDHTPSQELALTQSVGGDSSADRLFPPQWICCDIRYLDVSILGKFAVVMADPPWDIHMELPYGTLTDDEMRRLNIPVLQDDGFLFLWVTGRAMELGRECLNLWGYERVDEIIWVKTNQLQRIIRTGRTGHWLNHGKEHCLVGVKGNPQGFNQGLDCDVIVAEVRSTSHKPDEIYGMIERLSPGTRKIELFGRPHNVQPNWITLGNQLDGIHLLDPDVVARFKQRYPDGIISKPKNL
Sequence of METTL3/METTL14 (Q9HCE5 whole entry partner, species assumed): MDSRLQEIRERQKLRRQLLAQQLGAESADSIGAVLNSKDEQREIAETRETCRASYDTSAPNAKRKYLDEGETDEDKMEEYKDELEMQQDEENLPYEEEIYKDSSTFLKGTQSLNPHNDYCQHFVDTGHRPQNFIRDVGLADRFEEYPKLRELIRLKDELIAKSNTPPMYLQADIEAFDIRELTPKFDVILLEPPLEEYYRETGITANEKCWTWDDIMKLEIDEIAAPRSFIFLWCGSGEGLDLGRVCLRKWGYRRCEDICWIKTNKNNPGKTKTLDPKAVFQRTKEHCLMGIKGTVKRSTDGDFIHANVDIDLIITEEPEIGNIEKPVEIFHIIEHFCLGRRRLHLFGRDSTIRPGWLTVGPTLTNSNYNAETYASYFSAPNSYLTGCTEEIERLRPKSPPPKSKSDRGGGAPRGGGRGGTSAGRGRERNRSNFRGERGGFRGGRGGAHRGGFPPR

| SMILES | IC50 (METTL3/METTL14) [nM] | IC50 (PRMT5-MEP50) [nM] | IC50 (METTL1/WDR4; [1]) [nM] | IC50 (METTL16) [nM] | IC50 (METTL1/WDR4) [nM] |
| --- | --- | --- | --- | --- | --- |
| CNc1ccc2ccc(CCc3cncc(-n4cc(F)c5c(N)ncnc54)c3)cc2n1 [Compound I-116] | < 10 | > 1000 | > 1000 | > 1000 |  |
| CCNc1ccc2ccc(OCc3cncc(-n4cc(-c5ccn(C)n5)c5c(N)ncnc54)c3)cc2n1 [Compound I-128] | < 10 | > 1000 | > 1000 | > 1000 |  |
| CNc1ccc2ccc(OCc3cncc(-n4cc([C@@H]5CCCO5)c5c(N)ncnc54)c3)cc2n1 [Compound I-113] | < 10 | > 1000 |  | > 1000 | > 1000 |
| CNc1ccc2ccc(CCc3cncc(-n4ccc5c(N)ncnc54)c3)cc2n1 [Compound I-30] | 10 to 100 | > 1000 | > 1000 | > 1000 |  |
| CCc1cc(N2CCC(F)(F)CC2)c2ccc(OCc3cncc(-n4ccc5c(N)ncnc54)c3)cc2n1 [Compound I-118] | < 10 | > 1000 | > 1000 | > 1000 |  |
| CCc1cc(NCCOC)c2ccc(CCc3cncc(-n4cc(-c5ccn(C)n5)c5c(N)ncnc54)c3)cc2n1 [Compound I-115] | < 10 | > 1000 |  | > 1000 | > 1000 |
| CCNc1ccc2ccc(OCc3cccc(-n4cc(Cl)c5c(N)ncnc54)c3)cc2n1 [Compound I-61] | 10 to 100 | > 1000 | > 1000 | > 1000 |  |
| CNc1ccc2ccc(OCc3cncc(-n4cc(CC5CC5)c5c(N)ncnc54)c3)cc2n1 [Compound I-29] | < 10 | > 1000 | > 1000 | > 1000 |  |
| CNc1ccc2ccc(OCc3cncc(-n4c(C)cc5c(N)ncnc54)c3)cc2n1 [Compound I-36] | 10 to 100 | > 1000 | > 1000 | > 1000 |  |
| Nc1ncnc2c1c(C1CCCO1)cn2-c1cncc(CCc2ccc3ccc(N4CCC4)nc3c2)c1 (stereo not shown) [Compound I-126] | < 10 | > 1000 | > 1000 | > 1000 |  |
| CNc1ccc2ccc(OCc3cc(Br)cc(-n4cc(Cl)c5c(N)ncnc54)c3)cc2n1 [Compound I-75] | 100 to 1000 | > 1000 | > 1000 | > 1000 |  |
| CNc1ccc2ccc(OCc3cncc(-n4cc(C5CCCC5)c5c(N)ncnc54)c3)cc2n1 [Compound I-58] | < 10 | > 1000 |  | > 1000 |  |
| CCc1cc(N(C)CCOC)c2ccc(CCc3cncc(-n4cc(-c5ccn(C)n5)c5c(N)ncnc54)c3)cc2n1 [Compound I-117] | < 10 | > 1000 |  | > 1000 | > 1000 |
| CNc1ccc2ccc(OCc3cncc(-n4cc(C(C)C5CC5)c5c(N)ncnc54)c3)cc2n1 (stereo not shown) [Compound I-120] | < 10 | > 1000 | > 1000 | > 1000 |  |
| CNc1ccc2cc(CCc3cccc(-n4cc(Cl)c5c(N)ncnc54)c3)ccc2n1 [Compound I-70] | 100 to 1000 | > 1000 | > 1000 | > 1000 |  |
| CNc1ccc2ccc(OCc3cncc(-n4cc([C@H]5CCCO5)c5c(N)ncnc54)c3)cc2n1 [Compound I-112] | < 10 | > 1000 |  | > 1000 | > 1000 |
| Cn1ccc(-c2cn(-c3cncc(CCc4ccc5cc(Br)c(N)nc5c4)c3)c3ncnc(N)c23)n1 [Compound I-123] | > 1000 | > 1000 | > 1000 | > 1000 |  |
| Cn1ccc(-c2cn(-c3cncc(CCc4ccc5ccc(N)nc5c4)c3)c3ncnc(N)c23)n1 [Compound I-114] | < 10 | > 1000 | > 1000 | > 1000 |  |
| CCc1cc(N2CCNCC2)c2ccc(OCc3cncc(-n4cc(-c5ccn(C)n5)c5c(N)ncnc54)c3)cc2n1 [Compound I-121] | < 10 | > 1000 | > 1000 | > 1000 |  |
| CNc1ccc2ccc(OCc3cc(CO)cc(-n4cc(Cl)c5c(N)ncnc54)c3)cc2n1 [Compound I-34] | < 10 | > 1000 | > 1000 | > 1000 |  |
| CNc1ccc2ccc(OCc3cccc(-n4cc(Cl)c5c(N)ncnc54)c3)cc2n1 [Compound I-87] | 10 to 100 | > 1000 | > 1000 | > 1000 |  |
| C[C@@H]1CCN1c1ccc2ccc(OCc3cncc(-n4cc(C5CCCC5)c5c(N)ncnc54)c3)cc2n1 [Compound I-124] | 10 to 100 | > 1000 | > 1000 | > 1000 |  |
| CCc1cc(NCCCN(C)C)c2ccc(CCc3cncc(-n4ccc5c(N)ncnc54)c3)cc2n1 [Compound I-127] | < 10 | > 1000 | > 1000 | > 1000 |  |
| Nc1nc2cc(OCc3cncc(-n4ccc5c(N)ncnc54)c3)ccc2cc1Br [Compound I-111] | > 1000 | > 1000 | > 1000 | > 1000 |  |
| CNc1ccc2ccc(OCc3cncc(-n4cc(-c5ccnn5C)c5c(N)ncnc54)c3)cc2n1 [Compound I-35] | < 10 | > 1000 | > 1000 | > 1000 |  |
| CNc1ccc2ccc(OCc3cncc(-n4cc(Cl)c5c(N)ncnc54)c3)cc2n1 [Compound I-74, 7-((5-(4-amino-5-chloro-7H-pyrrolo[2,3-d]pyrimidin-7-yl)pyridin-3-yl)methoxy)-N-methylquinolin-2-amine] | < 10 | > 1000 | > 1000 | > 1000 |  |
| CNc1ccc2ccc(OCc3cncc(-n4cc(-c5ccc(C)o5)c5c(N)ncnc54)c3)cc2n1 [Compound I-234] | < 10 | > 1000 | > 1000 | > 1000 |  |
| CNc1ccc2ccc(OCc3cncc(-n4cc(-c5ncco5)c5c(N)ncnc54)c3)cc2n1 [Compound I-235] | < 10 | > 1000 | > 1000 | > 1000 |  |
| CCc1cc(NC)c2ccc(CCc3cncc(-n4cc(-c5ccn(C)n5)c5c(N)ncnc54)c3)cc2n1 [Compound I-122] | < 10 | > 1000 | > 1000 | > 1000 |  |

— patent publication US20220372040A1, “METTL3 MODULATORS” (Accent Therapeutics, Inc., priority 2020, published 2022)
